The values that follow come from article PMC9867208, “Lipophilicity and ADMET Analysis of Quinoline-1,4-quinone Hybrids” (Pharmaceutics, 2022).

Like-named read-outs stand apart in the source and are kept apart here.

The nature of series [1]: Experimental lipophilicity by RP-TLC. Particulars: for φ0 (hydrophobicity index): φ0 = −RM0/b. An excerpt: The RP-TLC method was used to determine the experimental lipophilicity according to the literature. Modified silica gel was used as the stationary phase and a mixture of tris(hydroxymethyl)aminomethane (TRIS) (0.2 M, pH = 7.4) with acetone as the mobile phase. […] For this reason, an aprotic solvent such as acetone was chosen as the mobile phase.
Spots were visualized in iodine vapor.
The retardation parameter (Rf) was converted to the RM parameter according to Equation (1):(1) RM=log(1/Rf−1)
The RM parameter was calculated for every concentration of acetone and extrapolated to zero concentration of organic solvent in the mobile phase. The chromatographic parameter of lipophilicity (RM0) was calculated using Equation (2):(2) RM=RM0+bC where C is the concentration of acetone in the mobile phase, while b is the slope of the regression plot.
In the next step, the relative lipophilicity parameter RM0 was converted to the absolute lipophilicity parameter logPTLC using the calibration curve.
Lipophilicity correlates with hydrophobicity, which determines the solubility of the compound in water. The hydrophobicity is described by the hydrophobicity index (φ0), which can be calculated according to Equation (4). (4) φ0=−RM0/b

Series [2] relates to NAD(P)H quinone dehydrogenase 1 (NQO1). The settings on record: cited from earlier work.
The mark [3] stands for this setting: RP-TLC, acetone/TRIS 0.2 M pH 7.4, extrapolated to zero acetone.
Where [4] appears, read: from RM0 by calibration curve Equation (3).

As a reminder, the chromatographic logP is a lipophilicity value derived from retention on a column.

On to `NC(=O)c1ccccc1` [A, benzamide, reference compound], for which the chromatographic logP in series [1] came to 0.54. The “RM0 (chromatographic parameter of lipophilicity)” value (shortened to “RM0”) in series [1] (setting [3]) is recorded as 0.54.
Take `CC(=O)Nc1ccccc1` [B, acetanilide, reference compound]: the “RM0” value in series [1] (setting [3]) is recorded as 1.11. The “logPTLC (experimental lipophilicity)” value in series [1] (setting [4]) was 1.19.
For the molecule `CC(=O)c1ccc(Br)cc1` [C, 4-bromoacetophenone, reference compound], the “RM0” value in series [1] (setting [3]) is recorded as 2.33. The “logPTLC (experimental lipophilicity)” value in series [1] (setting [4]) was 2.58.
As to `O=C1C(Cl)=C(Oc2cccc3cccnc23)C(=O)c2ncccc21` [Compound 1], the “logNQO1 (enzymatic conversion rate of NQO1)” value (shortened to “logNQO1”) in series [2] is listed as 3.146. Further, in series [1], the “logPTLC (experimental lipophilicity)” value is given as 1.65 and the “φ0 (hydrophobicity index)” value was 72.87. The “RM0” value in series [1] (pH 7.4) is 1.51 ± 0.02.
With `Cc1ccc2cccc(OC3=C(Cl)C(=O)c4cccnc4C3=O)c2n1` [Compound 2], in series [2], the “logNQO1” value is 3.112. Also, in series [1], the “logPTLC (experimental lipophilicity)” value is listed as 1.84 and the “φ0 (hydrophobicity index)” value is given as 68.99. Also, in series [1] (pH 7.4), the “RM0” value was determined as 1.68 ± 0.03.
Regarding `O=Cc1ccc2cccc(OC3=C(Cl)C(=O)c4cccnc4C3=O)c2n1` [Compound 3], the “logNQO1” value in series [2] is given as 3.041. In series [1], the chromatographic logP was found to be 1.75 and the “φ0 (hydrophobicity index)” value is recorded as 68.09. Besides, the “RM0” value in series [1] (setting [3]) is 1.60 ± 0.03.
For `O=C1C(Cl)=C(Oc2cccc3ccc(Cl)nc23)C(=O)c2ncccc21` [Compound 4], the “logNQO1” value in series [2] is given as 2.903. Besides, in series [1], the chromatographic logP came to 2.55 and the “φ0 (hydrophobicity index)” value was found to be 65.88. In addition, the “RM0” value in series [1] (setting [3]) is listed as 2.55 ± 0.02.
Turning to `O=C1C(Cl)=C(Oc2cccc3ccc(N4CCCC4)nc23)C(=O)c2ncccc21` [Compound 5], the “logNQO1” value in series [2] is 3.034. Further, in series [1], the chromatographic logP amounted to 2.6 and the “φ0 (hydrophobicity index)” value is 74.53. For the same molecule, in series [1] (setting [3]), the “RM0” value is listed as 2.35 ± 0.02.
With `O=C1C(Cl)=C(Oc2cccc3ccc(N4CCOCC4)nc23)C(=O)c2ncccc21` [Compound 6], in series [2], the “logNQO1” value is reported as 2.053. In series [1], the chromatographic logP is 2.72 and the “φ0 (hydrophobicity index)” value is reported as 66.81. Moreover, the “RM0” value in series [1] (setting [3]) is listed as 2.45 ± 0.04.
As to `O=C1C(Cl)=C(Oc2cccc3cccnc23)C(=O)c2cnccc21` [Compound 7], the “logNQO1” value in series [2] was 3.083. Also, in series [1], the “logPTLC (experimental lipophilicity)” value came out at 2.40 and the “φ0 (hydrophobicity index)” value came to 72.57. For the same molecule, the “RM0” value in series [1] (pH 7.4) was 2.17 ± 0.01.
`Cc1ccc2cccc(OC3=C(Cl)C(=O)c4ccncc4C3=O)c2n1` [Compound 8]: the “logNQO1” value in series [2] is 3.058. In addition, in series [1], the “logPTLC (experimental lipophilicity)” value worked out at 2.85 and the “φ0 (hydrophobicity index)” value turned out to be 74.47. Moreover, in series [1] (pH 7.4), the “RM0” value stood at 2.56 ± 0.02.
Take `O=Cc1ccc2cccc(OC3=C(Cl)C(=O)c4ccncc4C3=O)c2n1` [Compound 9]: the “logNQO1” value in series [2] is recorded as 2.502. Moreover, in series [1], the chromatographic logP was found to be 2.72 and the “φ0 (hydrophobicity index)” value came to 73.71. Moreover, the “RM0” value in series [1] (setting [3]) is reported as 2.45 ± 0.02.
As to `O=C1C(Cl)=C(Oc2cccc3ccc(Cl)nc23)C(=O)c2cnccc21` [Compound 10], in series [2], the “logNQO1” value is 2.801. Besides, in series [1], the chromatographic logP stood at 3.63 and the “φ0 (hydrophobicity index)” value is listed as 78.21. For the same molecule, the “RM0” value in series [1] (setting [3]) is 3.25 ± 0.01.
For the molecule `O=C1C(Cl)=C(Oc2cccc3ccc(N4CCCC4)nc23)C(=O)c2cnccc21` [Compound 11], the “logNQO1” value in series [2] is recorded as 2.330. In addition, in series [1], the chromatographic logP came to 3.15 and the “φ0 (hydrophobicity index)” value is 74.76. Also, the “RM0” value in series [1] (setting [3]) is 2.83 ± 0.03.
Take `O=C1C(Cl)=C(Oc2cccc3ccc(N4CCOCC4)nc23)C(=O)c2cnccc21` [Compound 12]: the “logNQO1” value in series [2] is given as 2.155. In series [1], the chromatographic logP turned out to be 3.68 and the “φ0 (hydrophobicity index)” value amounted to 72.22. For the same molecule, the “RM0” value in series [1] (setting [3]) is recorded as 3.30 ± 0.02.
Regarding `Cc1ccc2c(n1)C(=O)C(Oc1cccc3cccnc13)=C(Cl)C2=O` [Compound 13], the “logNQO1” value in series [2] is 3.178. In series [1], the “logPTLC (experimental lipophilicity)” value turned out to be 2.31 and the “φ0 (hydrophobicity index)” value is given as 66.07. Moreover, the “RM0” value in series [1] (pH 7.4) was found to be 2.09 ± 0.02.
`Cc1ccc2c(n1)C(=O)C(Oc1cccc3ccc(C)nc13)=C(Cl)C2=O` [Compound 14]: the “logNQO1” value in series [2] is recorded as 3.157. Further, in series [1], the “logPTLC (experimental lipophilicity)” value was 2.00 and the “φ0 (hydrophobicity index)” value came out at 69.97. Besides, the “RM0” value in series [1] (pH 7.4) is 1.82 ± 0.02.
For the molecule `Cc1ccc2c(n1)C(=O)C(Oc1cccc3ccc(C=O)nc13)=C(Cl)C2=O` [Compound 15], in series [2], the “logNQO1” value is listed as 2.672. In series [1], the chromatographic logP turned out to be 2.26 and the “φ0 (hydrophobicity index)” value is on record as 71.78. Further, in series [1] (setting [3]), the “RM0” value is on record as 2.05 ± 0.01.
On to `Cc1ccc2c(n1)C(=O)C(Oc1cccc3ccc(Cl)nc13)=C(Cl)C2=O` [Compound 16], for which the “logNQO1” value in series [2] is given as 2.949. In series [1], the chromatographic logP amounted to 3.3 and the “φ0 (hydrophobicity index)” value is given as 69.66. For the same molecule, the “RM0” value in series [1] (setting [3]) is on record as 2.96 ± 0.01.
Take `Cc1ccc2c(n1)C(=O)C(Oc1cccc3ccc(N4CCCC4)nc13)=C(Cl)C2=O` [Compound 17]: the “logNQO1” value in series [2] is 2.778. In addition, in series [1], the chromatographic logP turned out to be 3.79 and the “φ0 (hydrophobicity index)” value is 75.30. Further, in series [1] (setting [3]), the “RM0” value is 3.39 ± 0.03.
Regarding `Cc1ccc2c(n1)C(=O)C(Oc1cccc3ccc(N4CCOCC4)nc13)=C(Cl)C2=O` [Compound 18], the “logNQO1” value in series [2] is 2.322. In series [1], the chromatographic logP came to 2.98 and the “φ0 (hydrophobicity index)” value is on record as 68.95. In addition, in series [1] (setting [3]), the “RM0” value is 2.69 ± 0.03.
For the molecule `O=C1C(Cl)=C(Oc2cccc3cccnc23)C(=O)c2ccccc21` [Compound 19], the “logNQO1” value in series [2] is 3.108. The “RM0” value in series [1] (setting [3]) is recorded as 2.90 ± 0.02. For the same molecule, in series [1] (setting [4]), the “logPTLC (experimental lipophilicity)” value was 3.23. The “φ0 (hydrophobicity index)” value in series [1] was 78.79.
Consider `Cc1ccc2cccc(OC3=C(Cl)C(=O)c4ccccc4C3=O)c2n1` [Compound 20], for which, in series [2], the “logNQO1” value is listed as 3.100. In addition, in series [1] (setting [3]), the “RM0” value was 3.34 ± 0.01. Moreover, the “logPTLC (experimental lipophilicity)” value in series [1] (setting [4]) came to 3.73. Moreover, the “φ0 (hydrophobicity index)” value in series [1] is given as 79.55.
Consider `O=Cc1ccc2cccc(OC3=C(Cl)C(=O)c4ccccc4C3=O)c2n1` [Compound 21], for which the “logNQO1” value in series [2] is reported as 2.740. In series [1], the chromatographic logP turned out to be 4.61 and the “φ0 (hydrophobicity index)” value is 80.01. Besides, the “RM0” value in series [1] (setting [3]) is 4.11 ± 0.01.
Consider `O=C1C(Cl)=C(Oc2cccc3ccc(Cl)nc23)C(=O)c2ccccc21` [Compound 22], for which the “logNQO1” value in series [2] is reported as 3.000. Also, in series [1], the chromatographic logP worked out at 5.06 and the “φ0 (hydrophobicity index)” value worked out at 76.85. Further, the “RM0” value in series [1] (setting [3]) is given as 4.51 ± 0.02.
Turning to `O=C1C(Cl)=C(Oc2cccc3ccc(N4CCCC4)nc23)C(=O)c2ccccc21` [Compound 23], the “logNQO1” value in series [2] is given as 2.549. Moreover, in series [1], the chromatographic logP was 4.16 and the “φ0 (hydrophobicity index)” value is listed as 81.13. Moreover, the “RM0” value in series [1] (setting [3]) is 3.72 ± 0.02.
Turning to `O=C1C(Cl)=C(Oc2cccc3ccc(N4CCOCC4)nc23)C(=O)c2ccccc21` [Compound 24], the “logNQO1” value in series [2] is reported as 1.940. In series [1], the chromatographic logP worked out at 4.5 and the “φ0 (hydrophobicity index)” value came to 75.95. Further, the “RM0” value in series [1] (setting [3]) is 4.01 ± 0.01.
With `c1ccc2cc3ccccc3cc2c1` [E, anthracene, reference compound], the chromatographic logP in series [1] amounted to 4.45. In addition, in series [1] (setting [3]), the “RM0” value is reported as 3.97.
Take `Clc1ccc(C(c2ccc(Cl)cc2)C(Cl)(Cl)Cl)cc1` [F, dichlorodiphenyltrichloroethane, reference compound]: the “RM0” value in series [1] (setting [3]) is recorded as 5.60. The “logPTLC (experimental lipophilicity)” value in series [1] (setting [4]) amounted to 6.31.
